Measurements: US9273053B2, “Sulfur-containing heterocyclic derivative having Beta secretase inhibitory activity” (Shionogi & Co., Ltd., priority 2008, dated 2016)

Legend:
CYP2D6 = CYP2D6 (Homo sapiens (Human), UniProt P10635); test: CYP inhibition test (CYP2D6); assay type: in vitro ADME; conditions: pooled human hepatic microsome, dextromethorphan O-demethylation
Protocol: (§1) After the centrifugation at 3000 rpm for 15 minutes, resorufin (CYP1A2 metabolite) in the supernatant was quantified by a fluorescent multilabel counter and tributamide hydroxide (CYP2CP metabolite), mephenyloin 4′ hydroxide (CYP2C19 metabolite), […] (CYP2D6 metabolite), and terfenadine alcohol (CYP3A4 metabolite) were quantified by LC/MS/MS. Addition of only DMSO being a solvent dissolving a drug to a reaction system was adopted as a control (100%), remaining activity (%) was calculated at each concentration of a test drug added as the solution and […] was calculated by reverse presumption by a logistic model using a concentration and an inhibition rate.

CYP2C19 = CYP2C19 (Homo sapiens (Human), UniProt P33261); test: CYP inhibition test (CYP2C19); assay type: in vitro ADME; conditions: pooled human hepatic microsome, mephenytoin 4′-hydroxylation
Sequence of CYP2C19 (P33261 whole entry): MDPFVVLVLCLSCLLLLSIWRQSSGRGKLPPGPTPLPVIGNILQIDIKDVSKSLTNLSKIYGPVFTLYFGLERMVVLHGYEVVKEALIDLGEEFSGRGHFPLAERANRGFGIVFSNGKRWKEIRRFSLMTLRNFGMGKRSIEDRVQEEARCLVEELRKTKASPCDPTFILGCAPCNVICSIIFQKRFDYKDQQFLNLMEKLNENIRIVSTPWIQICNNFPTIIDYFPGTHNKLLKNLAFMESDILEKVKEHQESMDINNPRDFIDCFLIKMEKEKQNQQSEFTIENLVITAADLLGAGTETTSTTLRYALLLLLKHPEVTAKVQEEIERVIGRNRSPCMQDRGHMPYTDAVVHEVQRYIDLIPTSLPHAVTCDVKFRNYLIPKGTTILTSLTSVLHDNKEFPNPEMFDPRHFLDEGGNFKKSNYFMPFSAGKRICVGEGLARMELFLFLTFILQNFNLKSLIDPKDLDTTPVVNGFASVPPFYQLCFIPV
Protocol: as §1

CYP2C9 = CYP2C9 (Homo sapiens (Human), UniProt P11712); test: CYP inhibition test (CYP2C9); assay type: in vitro ADME; conditions: pooled human hepatic microsome, tolbutamide methyl-hydroxylation
Sequence of CYP2C9 (P11712 whole entry): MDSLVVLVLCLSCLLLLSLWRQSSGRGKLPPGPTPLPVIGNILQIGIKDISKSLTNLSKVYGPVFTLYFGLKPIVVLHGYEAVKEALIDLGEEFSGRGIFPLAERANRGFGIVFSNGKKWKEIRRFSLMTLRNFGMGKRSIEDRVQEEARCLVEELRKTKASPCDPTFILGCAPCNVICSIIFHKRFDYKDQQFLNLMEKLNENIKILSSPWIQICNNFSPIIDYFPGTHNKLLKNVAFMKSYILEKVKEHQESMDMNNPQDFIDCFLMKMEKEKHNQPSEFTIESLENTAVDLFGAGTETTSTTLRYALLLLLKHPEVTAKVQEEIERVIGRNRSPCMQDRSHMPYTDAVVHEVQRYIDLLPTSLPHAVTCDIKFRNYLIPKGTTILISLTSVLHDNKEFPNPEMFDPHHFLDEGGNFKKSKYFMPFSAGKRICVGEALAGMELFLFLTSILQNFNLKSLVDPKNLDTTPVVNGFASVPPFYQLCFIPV
Protocol: as §1

Recombinant human BACE-1 = Recombinant human BACE-1 (Homo sapiens (Human), UniProt P56817); test: Assay of β-secretase-inhibiting activity; conditions: Recombinant human BACE-1 7.4 nM, substrate peptide 18 nM, pH 5.0, 30° C. for 3 hours
Sequence of Recombinant human BACE-1 (P56817 46-501): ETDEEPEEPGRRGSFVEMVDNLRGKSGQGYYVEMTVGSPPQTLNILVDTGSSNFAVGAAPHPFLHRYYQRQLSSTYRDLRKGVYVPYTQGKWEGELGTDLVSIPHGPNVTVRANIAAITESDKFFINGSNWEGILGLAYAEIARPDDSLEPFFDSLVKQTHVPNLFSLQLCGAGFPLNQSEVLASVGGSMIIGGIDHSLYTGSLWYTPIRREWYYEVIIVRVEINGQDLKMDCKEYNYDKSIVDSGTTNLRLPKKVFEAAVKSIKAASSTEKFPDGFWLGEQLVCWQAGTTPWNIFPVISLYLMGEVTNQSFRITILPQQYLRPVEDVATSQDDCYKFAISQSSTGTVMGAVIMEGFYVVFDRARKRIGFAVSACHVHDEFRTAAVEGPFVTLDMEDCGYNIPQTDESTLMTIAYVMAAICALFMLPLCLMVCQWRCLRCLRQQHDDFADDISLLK

CYP1A2 = CYP1A2 (Homo sapiens (Human), UniProt P05177); test: CYP inhibition test (CYP1A2); assay type: in vitro ADME; conditions: pooled human hepatic microsome, 7-ethoxyresorufin O-deethylation
Sequence of CYP1A2 (P05177 whole entry): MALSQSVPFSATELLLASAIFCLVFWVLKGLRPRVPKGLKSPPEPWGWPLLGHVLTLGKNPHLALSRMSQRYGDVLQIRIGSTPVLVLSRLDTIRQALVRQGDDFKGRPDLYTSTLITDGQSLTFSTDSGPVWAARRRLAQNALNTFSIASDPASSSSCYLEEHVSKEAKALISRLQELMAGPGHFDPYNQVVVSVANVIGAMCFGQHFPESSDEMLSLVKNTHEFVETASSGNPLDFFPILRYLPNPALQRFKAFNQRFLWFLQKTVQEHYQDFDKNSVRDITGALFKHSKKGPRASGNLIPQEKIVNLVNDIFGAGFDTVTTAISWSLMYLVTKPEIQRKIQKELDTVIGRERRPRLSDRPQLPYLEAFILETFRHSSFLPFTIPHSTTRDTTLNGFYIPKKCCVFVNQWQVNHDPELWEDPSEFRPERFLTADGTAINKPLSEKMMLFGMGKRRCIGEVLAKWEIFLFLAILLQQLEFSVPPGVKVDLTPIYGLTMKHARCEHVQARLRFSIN
Protocol: as §1

CYP3A4 = CYP3A4 (Homo sapiens (Human), UniProt P08684); test: CYP inhibition test (CYP3A4); assay type: in vitro ADME; conditions: pooled human hepatic microsome, terfenedine hydroxylation
Sequence of CYP3A4 (P08684 whole entry): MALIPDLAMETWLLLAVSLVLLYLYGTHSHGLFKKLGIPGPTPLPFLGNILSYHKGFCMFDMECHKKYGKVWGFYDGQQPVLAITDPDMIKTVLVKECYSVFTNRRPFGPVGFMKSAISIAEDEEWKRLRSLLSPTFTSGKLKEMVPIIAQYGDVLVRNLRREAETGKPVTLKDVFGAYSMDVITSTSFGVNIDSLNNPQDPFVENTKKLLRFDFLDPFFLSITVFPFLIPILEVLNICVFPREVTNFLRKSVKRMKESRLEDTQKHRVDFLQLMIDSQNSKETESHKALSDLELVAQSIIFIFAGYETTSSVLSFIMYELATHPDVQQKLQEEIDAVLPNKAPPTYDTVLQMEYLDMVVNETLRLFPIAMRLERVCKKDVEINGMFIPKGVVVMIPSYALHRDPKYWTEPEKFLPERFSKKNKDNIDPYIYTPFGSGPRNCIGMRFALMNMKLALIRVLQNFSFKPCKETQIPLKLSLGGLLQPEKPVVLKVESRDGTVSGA
Protocol: as §1

[1] = target: human ether-a-go-go related gene (hERG) channel (Homo sapiens (Human), UniProt Q12809); test: hERG test; assay type: cell-based; conditions: HEK293 cells expressing hERG channel, whole cell patch clamp, concentration not given
Sequence of human ether-a-go-go related gene (hERG) channel (Q12809 whole entry): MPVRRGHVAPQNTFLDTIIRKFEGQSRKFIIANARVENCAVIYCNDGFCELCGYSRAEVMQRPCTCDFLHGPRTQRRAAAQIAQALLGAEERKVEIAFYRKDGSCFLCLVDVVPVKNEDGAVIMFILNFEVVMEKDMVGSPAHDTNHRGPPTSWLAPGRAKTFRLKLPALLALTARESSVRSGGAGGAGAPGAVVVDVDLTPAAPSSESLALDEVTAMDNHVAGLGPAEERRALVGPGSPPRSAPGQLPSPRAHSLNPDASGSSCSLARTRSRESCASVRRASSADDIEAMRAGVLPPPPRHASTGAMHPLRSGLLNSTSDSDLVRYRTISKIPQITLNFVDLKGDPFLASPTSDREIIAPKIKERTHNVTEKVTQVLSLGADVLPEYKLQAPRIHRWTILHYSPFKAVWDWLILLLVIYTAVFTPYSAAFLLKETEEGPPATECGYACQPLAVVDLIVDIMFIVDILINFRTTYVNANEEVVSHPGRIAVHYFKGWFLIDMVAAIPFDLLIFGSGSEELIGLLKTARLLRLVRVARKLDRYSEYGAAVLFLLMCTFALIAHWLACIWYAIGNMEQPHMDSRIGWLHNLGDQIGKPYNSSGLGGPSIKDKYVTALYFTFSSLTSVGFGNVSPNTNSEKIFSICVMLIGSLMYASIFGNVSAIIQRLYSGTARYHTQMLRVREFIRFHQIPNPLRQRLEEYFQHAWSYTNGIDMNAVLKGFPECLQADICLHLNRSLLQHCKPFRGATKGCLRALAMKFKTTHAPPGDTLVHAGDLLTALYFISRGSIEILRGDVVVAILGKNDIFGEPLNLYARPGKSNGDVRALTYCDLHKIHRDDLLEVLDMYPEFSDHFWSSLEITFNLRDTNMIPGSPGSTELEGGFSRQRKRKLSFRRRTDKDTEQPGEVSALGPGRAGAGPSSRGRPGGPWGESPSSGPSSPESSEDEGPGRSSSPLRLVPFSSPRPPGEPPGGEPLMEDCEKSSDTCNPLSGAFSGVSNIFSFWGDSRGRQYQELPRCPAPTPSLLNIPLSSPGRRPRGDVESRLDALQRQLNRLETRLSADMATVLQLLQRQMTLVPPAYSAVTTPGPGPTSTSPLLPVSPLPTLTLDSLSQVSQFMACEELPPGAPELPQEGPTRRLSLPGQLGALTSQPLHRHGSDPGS
Text: For the purpose of assessing risk of an electrocardiogram QT interval prolongation, effects on delayed rectifier K+ current (IKr), which plays an important role in the ventricular repolarization process, was studied using HEK293 cells expressing human ether-a-go-go related gene (hERG) channel.
After a cell was retained at a membrane potential of −80 mV by whole cell patch clamp method using an automated patch clamp system (PatchXpress 7000A, Axon Instruments Inc.), IKr induced by depolarization pulse stimulation at +50 mV for 2 seconds and, further, repolarization pulse stimulation at −50 mV for 2 seconds was recorded. […] From the recording IKr, an absolute value of the tail peak current was measured based on the current value at the resting membrane potential using an analysis software (DataXpress ver. 1, Molecular Devices Corporation). Further, the % inhibition relative to the tail peak current before application of the test substance was calculated, and compared with the vehicle-applied group (0.1% dimethyl sulfoxide solution) to assess influence of the test substance on IKr.

Sequence of CYP2D6 (P10635 whole entry): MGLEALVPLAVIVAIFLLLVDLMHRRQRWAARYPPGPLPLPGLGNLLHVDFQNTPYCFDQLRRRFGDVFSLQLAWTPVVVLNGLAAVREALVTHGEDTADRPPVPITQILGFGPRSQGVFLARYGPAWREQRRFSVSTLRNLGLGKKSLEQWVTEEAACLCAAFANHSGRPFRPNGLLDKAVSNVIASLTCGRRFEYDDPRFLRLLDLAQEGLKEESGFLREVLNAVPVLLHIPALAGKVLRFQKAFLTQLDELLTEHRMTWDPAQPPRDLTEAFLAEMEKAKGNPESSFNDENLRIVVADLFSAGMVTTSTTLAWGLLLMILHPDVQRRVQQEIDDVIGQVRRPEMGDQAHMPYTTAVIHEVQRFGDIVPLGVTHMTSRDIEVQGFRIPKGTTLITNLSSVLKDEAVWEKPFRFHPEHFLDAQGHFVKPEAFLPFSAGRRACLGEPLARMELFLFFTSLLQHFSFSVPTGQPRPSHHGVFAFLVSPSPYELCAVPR

Row | IC50 (CYP2D6) [µM] | IC50 (CYP2C19) [µM] | IC50 (CYP2C9) [µM] | IC50 (Recombinant human BACE-1) [µM] | IC50 (CYP1A2) [µM] | IC50 (CYP3A4) [µM] | Structure (SMILES) | % inhibition of IKr tail peak current [1] [%]
1 | > 20 | > 20 | > 20 | 0.096 | > 20 | > 20 | Cc1cc(C(=O)Nc2ccc(F)c([C@]3(C)C=CSC(N)=N3)c2)n(C)c1 [Compound 35] | 
2 |  |  |  |  |  |  | CNC(=O)c1ccc(-c2ccc(F)c([C@]3(C)C=CSC(N)=N3)c2)cn1 [Compound 92] | 7.9
3 |  |  |  |  |  |  | C=C1C[C@@](C)(c2cc(NC(=O)c3cnc(OC)cn3)cnc2C)N=C(N)S1 [Compound 102] | 2.3
